Source: patent US10987359B2, “Oxadiazepinone derivatives and methods of treating hepatitis B infections” (priority 2016, dated 2021)

Each molecule was assayed on HBV (assay: HBV replication inhibition assay (BDNA assay) in HepG2.2.15 cells). Details: HBV replication assay (BDNA assay), HepG2.2.15 cells; read-out: DNA EC50.
Assay type: cell-based
Procedure, shortened: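 HepG2.2.15 cells with stably integrated HBV were treated with serially diluted compounds at 0.5% DMSO for 6 days, with medium and compound refreshed at day 3. Encapsidated HBV DNA from DNase-treated supernatant was quantified by branched DNA assay. EC50 came from % inhibition versus DMSO, fitted non-linearly.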
Cc1cc(NC(=O)N2Cc3c(nn4c3C(=O)N(C)OC(CF)C4)C[C@H]2C)ccc1F (stereo in doubt) [Compound 086_E2, (4R*,9R)—N-(4-fluoro-3-methylphenyl)-4-(fluoromethyl)-2,9-dimethyl-1-oxo-1,4,5,8,9,11-hexahydropyrido[4′,3′:3,4]pyrazolo[5,1-d][1,2,5]oxadiazepine-10(2H)-carboxamide] was tested, and the EC50 was 1 to 100 nM.
In the case of C[C@@H]1Cc2nn3c(c2CN1C(=O)Nc1ccc(F)c(C#N)c1)C(=O)N(C)OC(C(=O)N(C)CC(F)F)C3 (stereo in doubt) [Compound 155_D1, (4S*,9R)—N10-(3-cyano-4-fluorophenyl)-N4-(2,2-difluoroethyl)-N4,2,9-trimethyl-1-oxo-1,4,5,8,9,11-hexahydropyrido[4′,3′:3,4]pyrazolo[5,1-d][1,2,5]oxadiazepine-4,10(2H)-dicarboxamide], the EC50 is reported as 500 to 1000 nM.

Same assay, conditions: Hepatitis B virus, HepG2.2.15, HBV replication assay (BDNA assay), HepG2.2.15 cells; read-out: DNA EC50
In the case of CN(C)C(=O)C1Cn2nc3c(c2C(=O)N(C)O1)CN(C(=O)Nc1ccc(F)c(Cl)c1)CC3 (stereo not shown) [Compound 074, N10-(3-chloro-4-fluoro-phenyl)-N4,N4,2-trimethyl-1-oxo-5,8,9,11-tetrahydro-4H-pyrido[2,3]pyrazolo[2,4-d][1,2,5]oxadiazepine-4,10-dicarboxamide], the EC50 is reported as 1 to 100 nM.
CN1OC(CO)Cn2nc3c(c2C1=O)CN(C(=O)Nc1ccc(F)c(Br)c1F)CC3 (stereo not shown) [Compound 010, N-(3-bromo-2,4-difluorophenyl)-4-(hydroxymethyl)-2-methyl-1-oxo-1,4,5,8,9,11-hexahydropyrido[4′,3′:3,4]pyrazolo[5,1-d][1,2,5]oxadiazepine-10(2H)-carboxamide] gave an EC50 of 1 to 100 nM.
CN1OC(CNC(=O)CO)Cn2nc3c(c2C1=O)CN(C(=O)Nc1ccc(F)c(Cl)c1)CC3 (stereo not shown) [Compound 206, N-(3-chloro-4-fluorophenyl)-4-((2-hydroxyacetamido)methyl)-2-methyl-1-oxo-1,4,5,8,9,11-hexahydropyrido[4′,3′:3,4]pyrazolo[5,1-d][1,2,5]oxadiazepine-10(2H)-carboxamide] was tested, and the EC50 was 1 to 100 nM.
Work on C[C@@H]1Cc2nn3c(c2CN1C(=O)Nc1ccc(F)c(Br)c1F)C(=O)N(C)OC(CO)C3 (single isomer, unassigned) [Compound 092_E1, (4S*,9R)—N-(3-bromo-2,4-difluorophenyl)-4-(hydroxymethyl)-2,9-dimethyl-1-oxo-1,4,5,8,9,11-hexahydropyrido[4′,3′:3,4]pyrazolo[5,1-d][1,2,5]oxadiazepine-10(2H)-carboxamide] yielded an EC50 of 1 to 100 nM.
CC[C@@H]1Cc2nn3c(c2CN1C(=O)Nc1ccc(F)c(Cl)c1)C(=O)N(C)O[C@@H](CO)C3 (stereo in doubt) [Compound 109_D3, (4R*,9R*)—N-(3-chloro-4-fluorophenyl)-9-ethyl-4-(hydroxymethyl)-2-methyl-1-oxo-1,4,5,8,9,11-hexahydropyrido[4′,3′:3,4]pyrazolo[5,1-d][1,2,5]oxadiazepine-10(2H)-carboxamide] showed an EC50 of 500 to 1000 nM.
In the case of C[C@@H]1Cc2nn3c(c2CN1C(=O)Nc1ccc(F)c(C#N)c1)C(=O)N(C)N=C(COCC(F)F)C3 [Compound 237, (R)-N-(3-cyano-4-fluorophenyl)-4-((2,2-difluoroethoxy)methyl)-2,9-dimethyl-1-oxo-1,2,5,8,9,11-hexahydro-10H-pyrido[4′,3′:3,4]pyrazolo[5,1-d][1,2,5]triazepine-10-carboxamide], the EC50 is reported as 1 to 100 nM.
For Cc1cccc(NC(=O)N2CCc3nn4c(c3C2)C(=O)N(C)OC(CO)C4)c1 (stereo not shown) [Compound 002, 4-(hydroxymethyl)-2-methyl-1-oxo-N-(m-tolyl)-1,4,5,8,9,11-hexahydropyrido[4′,3′:3,4]pyrazolo[5,1-d][1,2,5]oxadiazepine-10(2H)-carboxamide], the EC50 was 1 to 100 nM.
For CN1OC(CNCC(F)F)Cn2nc3c(c2C1=O)CN(C(=O)Nc1cc(Cl)c(F)cc1F)CC3 (single isomer, unassigned) [Compound 192_E1, (S*)—N-(5-chloro-2,4-difluorophenyl)-4-(((2,2-difluoroethyl)amino)methyl)-2-methyl-1-oxo-1,4,5,8,9,11-hexahydropyrido[4′,3′:3,4]pyrazolo[5,1-d][1,2,5]oxadiazepine-10(2H)-carboxamide], the EC50 was 1 to 100 nM.
With CCS(=O)(=O)NCC1Cn2nc3c(c2C(=O)N(C)O1)CN(C(=O)Nc1ccc(F)c(Cl)c1)CC3 (stereo not shown) [Compound 208, N-(3-chloro-4-fluorophenyl)-4-(ethylsulfonamidomethyl)-2-methyl-1-oxo-1,4,5,8,9,11-hexahydropyrido[4′,3′:3,4]pyrazolo[5,1-d][1,2,5]oxadiazepine-10(2H)-carboxamide] the EC50 was 1 to 100 nM.
With CN1OC(C)(C)Cn2nc3c(c2C1=O)CN(C(=O)Nc1ccc(F)c(Cl)c1)CC3 [Compound 064, N-(3-chloro-4-fluoro-phenyl)-2,4,4-trimethyl-1-oxo-5,8,9,11-tetrahydro pyrido[2,3]pyrazolo[2,4-d][1,2,5]oxadiazepine-10-carboxamide] the EC50 was 1 to 100 nM.
With CN1OC(CF)Cn2nc3c(c2C1=O)CN(C(=O)Nc1cc(F)c(F)c(Cl)c1)CC3 (single isomer, unassigned) [Compound 044_E1, (S*)—N-(3-chloro-4,5-difluorophenyl)-4-(fluoromethyl)-2-methyl-1-oxo-1,4,5,8,9,11-hexahydropyrido[4′,3′:3,4]pyrazolo[5,1-d][1,2,5]oxadiazepine-10(2H)-carboxamide] the EC50 was 1 to 100 nM.
For CCCN1OCCn2nc3c(c2C1=O)CN(C(=O)Nc1ccc(F)c(Cl)c1)CC3 [Compound 068, N-(3-chloro-4-fluoro-phenyl)-1-oxo-2-propyl-5,8,9,11-tetrahydro-4H-pyrido[2,3]pyrazolo[2,4-c][1,2,5]oxadiazepine-10-carboxamide], the EC50 was 1 to 100 nM.
C[C@H]1Cc2nn3c(c2CN1C(=O)Nc1ccc(F)c(Cl)c1)C(=O)N(C)O[C@H](CO)C3 (stereo in doubt) [Compound 069_E1, (4S*,9S*)—N-(3-chloro-4-fluorophenyl)-4-(hydroxymethyl)-2,9-dimethyl-1-oxo-1,4,5,8,9,11-hexahydropyrido[4′,3′:3,4]pyrazolo[5,1-d][1,2,5]oxadiazepine-10(2H)-carboxamide] showed an EC50 of 1 to 100 nM.
In the case of CN(C)C(=O)NCC1Cn2nc3c(c2C(=O)N(C)O1)CN(C(=O)Nc1ccc(F)c(Cl)c1)CC3 (stereo not shown) [Compound 204, N-(3-chloro-4-fluorophenyl)-4-((3,3-dimethylureido)methyl)-2-methyl-1-oxo-1,4,5,8,9,11-hexahydropyrido[4′,3′:3,4]pyrazolo[5,1-d][1,2,5]oxadiazepine-10(2H)-carboxamide], the EC50 is reported as 1 to 100 nM.
CN1OC(CO)Cn2nc3c(c2C1=O)CN(C(=O)Nc1cc(F)c(F)c(Cl)c1)CC3 (single isomer, unassigned) [Compound 028_E1, (S*)—N-(3-chloro-4,5-difluorophenyl)-4-(hydroxymethyl)-2-methyl-1-oxo-1,4,5,8,9,11-hexahydropyrido[4′,3′:3,4]pyrazolo[5,1-d][1,2,5]oxadiazepine-10(2H)-carboxamide] was tested, and the EC50 was 1 to 100 nM.
Molecule CN1OC(CO)Cn2nc3c(c2C1=O)CN(C(=O)Nc1cccc(C#N)c1F)CC3 (single isomer, unassigned) [Compound 146_E1, (S*)—N-(3-cyano-2-fluorophenyl)-4-(hydroxymethyl)-2-methyl-1-oxo-1,4,5,8,9,11-hexahydropyrido[4′,3′:3,4]pyrazolo[5,1-d][1,2,5]oxadiazepine-10(2H)-carboxamide] has an EC50 of 1 to 100 nM.
For CC(=O)NCC1Cn2nc3c(c2C(=O)N(C)O1)CN(C(=O)Nc1ccc(F)c(Cl)c1F)CC3 (single isomer, unassigned) [Compound 169_E1, (S*)-4-(acetamidomethyl)-N-(3-chloro-2,4-difluorophenyl)-2-methyl-1-oxo-1,4,5,8,9,11-hexahydropyrido[4′,3′:3,4]pyrazolo[5,1-d][1,2,5]oxadiazepine-10(2H)-carboxamide], the EC50 was 1 to 100 nM.
In the case of CN1OC(CO)Cn2nc3c(c2C1=O)CN(C(=O)Nc1cccc(Cl)c1)CC3 (stereo not shown) [Compound 030, N-(3-chlorophenyl)-4-(hydroxymethyl)-2-methyl-1-oxo-1,4,5,8,9,11-hexahydropyrido[4′,3′:3,4]pyrazolo[5,1-d][1,2,5]oxadiazepine-10(2H)-carboxamide], the EC50 is reported as 1 to 100 nM.
CN1OC(CO)Cn2nc3c(c2C1=O)CN(C(=O)Nc1ccnc(Br)c1F)CC3 (single isomer, unassigned) [Compound 033_E1, (S*)—N-(2-bromo-3-fluoropyridin-4-yl)-4-(hydroxymethyl)-2-methyl-1-oxo-1,4,5,8,9,11-hexahydropyrido[4′,3′:3,4]pyrazolo[5,1-d][1,2,5]oxadiazepine-10(2H)-carboxamide] was tested, and the EC50 was 1 to 100 nM.
For Cc1c(F)c(F)cc(NC(=O)N2CCc3nn4c(c3C2)C(=O)N(C)OC(CO)C4)c1F (single isomer, unassigned) [Compound 144_E1, (S*)-4-(hydroxymethyl)-2-methyl-1-oxo-N-(2,4,5-trifluoro-3-methylphenyl)-1,4,5,8,9,11-hexahydropyrido[4′,3′:3,4]pyrazolo[5,1-d][1,2,5]oxadiazepine-10(2H)-carboxamide], the EC50 was 1 to 100 nM.
Work on CNC(=O)C1Cn2nc3c(c2C(=O)N(C)O1)CN(C(=O)Nc1ccc(F)c(C#N)c1F)[C@H](C)C3 (stereo in doubt) [Compound 156_D2, (4R*,9R)—N10-(3-cyano-2,4-difluorophenyl)-N4,2,9-trimethyl-1-oxo-1,4,5,8,9,11-hexahydropyrido[4′,3′:3,4]pyrazolo[5,1-d][1,2,5]oxadiazepine-4,10(2H)-dicarboxamide] yielded an EC50 of 1 to 100 nM.
In the case of C[C@@H]1Cc2nn3c(c2CN1C(=O)Nc1ccc(F)c(Br)c1)C(=O)N(C)OC(CN)C3 (stereo in doubt) [Compound 117_D1, (4S*,9R)-4-(aminomethyl)-N-(3-bromo-4-fluorophenyl)-2,9-dimethyl-1-oxo-1,4,5,8,9,11-hexahydropyrido[4′,3′:3,4]pyrazolo[5,1-d][1,2,5]oxadiazepine-10(2H)-carboxamide], the EC50 is reported as 1 to 100 nM.
CC1Cn2nc3c(c2C(=O)N(C)O1)CN(C(=O)Nc1ccc(F)c(Cl)c1)CC3 (stereo not shown) [Compound 062, N-(3-chloro-4-fluorophenyl)-2,4-dimethyl-1-oxo-1,4,5,8,9,11-hexahydropyrido[4′,3′:3,4]pyrazolo[5,1-d][1,2,5]oxadiazepine-10(2H)-carboxamide] was tested, and the EC50 was 1 to 100 nM.
